Values of other authors as cited in patent US20240317846A1 (priority 2021, published 2024).

Key:
[1] = system: COVID-19; conditions: non-significant trend; cited from earlier work
[2] = system: COVID-19; conditions: cited from earlier work

Substance	Improvement in survival without requirement for supplemental oxygen [1]	Subjects alive and free of respiratory failure at 28 days ([2]; pre-planned analysis, subjects aged at least 70 years, standard of care 45.9%)	Primary endpoint (proportion alive and free of respiratory failure 28 days) ([2]; whole population)
Mavrilimumab: monoclonal antibody that acts as a GM-CSF alpha-receptor antagonist	48%	–	–
Otilimab: monoclonal antibody targeting circulating GM-CSF	–	65.1%	not meet its primary endpoint
